From publication PMC11864037 (RSC Advances, 2025)
Where two headings read alike, the source gives them in different places.

Assays:
[1] = molecular target: SARS-CoV-2 M^pro (Severe acute respiratory syndrome coronavirus 2, UniProt P0DTD1); test: biochemical; conditions: for inhibition against M^pro: concentration not given
[2] = MTT cytotoxic assay in Vero-E6 cells; assay type: cell-based; conditions: African green monkey
[3] = system: M^pro; conditions: repurposed drug; cited from earlier work
[4] = system: SARS-CoV-2; conditions: cited from earlier work

Structure (SMILES) | IC50 [1] | other results
O=C(O)CC[C@H](NC(=O)C1=C(C(F)(F)F)NC(=S)NC1c1ccc(C(F)(F)F)cc1)C(=O)O (stereo partly drawn) [8a] | 23.2 µM | –
O=C(O)C[C@H](NC(=O)C1=C(C(F)(F)F)NC(=S)NC1c1ccc(C(F)(F)F)cc1)C(=O)O (stereo partly drawn) [8b] | 44.7 ± 1.36 µM | –
O=C(Nc1ccc(S(=O)(=O)O)cc1)C1=C(C(F)(F)F)NC(=S)NC1c1ccc(C(F)(F)F)cc1 (stereo not drawn) [8c] | 28.2 µM | –
O=C(N[C@@H](Cc1c[nH]cn1)C(=O)O)C1=C(C(F)(F)F)NC(=S)NC1c1ccc(C(F)(F)F)cc1 (stereo partly drawn) [8d] | 30.7 µM | –
O=C(N[C@@H](Cc1ccc(O)cc1)C(=O)O)C1=C(C(F)(F)F)NC(=S)NC1c1ccc(C(F)(F)F)cc1 (stereo partly drawn) [8e] | 25.3 µM | –
O=C(O)CC[C@H](NC(=O)C1=C(C(F)(F)F)NC(=S)NC1c1ccc([N+](=O)[O-])cc1)C(=O)O (stereo partly drawn) [8f] | 36.8 µM | –
COC(=O)c1ccc(C2NC(=S)NC(C(F)(F)F)=C2C(=O)N[C@@H](Cc2c[nH]cn2)C(=O)O)cc1 (stereo partly drawn) [8h] | 34.9 µM | –
O=C(O)CC[C@H](NC(=O)C1=C(C(F)(F)F)NC(SC(=O)CN2CCn3c(nnc3C(F)(F)F)C2)=NC1c1ccc(C(F)(F)F)cc1)C(=O)O (stereo partly drawn) [12a, (6-(Trifluoromethyl)-2-((2-(3-(trifluoromethyl)-5,6-dihydro-[1,2,4]triazolo[4,3-a]-pyrazin-7(8H)-yl)acetyl)thio)-4-(4 (trifluoromethyl)phenyl)-1,4-dihydropyrimidine-5-carbonyl)-L-glutamic acid] | 0.15 µM | –
O=C(CN1CCn2c(nnc2C(F)(F)F)C1)SC1=NC(c2ccc(C(F)(F)F)cc2)C(C(=O)N[C@@H](Cc2c[nH]cn2)C(=O)O)=C(C(F)(F)F)N1 (stereo partly drawn) [12d, (6-(Trifluoromethyl)-2-((2-(3-(trifluoromethyl)-5,6-dihydro-[1,2,4]triazolo[4,3-a]pyrazin-7(8H)-yl)acetyl)thio)-4-(4-(trifluoromethyl)phenyl)-1,4-dihydropyrimidine-5-carbonyl)histidine] | 14.4 µM | –
O=C(CN1CCn2c(nnc2C(F)(F)F)C1)SC1=NC(c2ccc(C(F)(F)F)cc2)C(C(=O)N[C@@H](Cc2ccc(O)cc2)C(=O)O)=C(C(F)(F)F)N1 (stereo partly drawn) [12e, (6-(Trifluoromethyl)-2-((2-(3-(trifluoromethyl)-5,6-dihydro-[1,2,4]triazolo[4,3-a]-pyrazin-7(8H)-yl)acetyl)thio)-4-(4-(trifluoromethyl)phenyl)-1,4-dihydropyrimidine-5-carbonyl)-L-tyrosine] | 0.73 ± 0.04 µM | –
NC1CCCN(CC(=O)SC2=NC(c3ccc(C(F)(F)F)cc3)C(C(=O)N[C@@H](Cc3ccc(O)cc3)C(=O)O)=C(C(F)(F)F)N2)C1 (stereo partly drawn) [12g, (2-((2-(3-Aminopiperidin-1-yl)acetyl)thio)-6-(trifluoromethyl)-4-(4-(trifluoromethyl)-phenyl)-1,4-dihydropyrimidine-5-carbonyl)-L-tyrosine] | 0.21 ± 0.01 µM | –
CS(=O)(=O)n1cc2c(n1)CN(CC(=O)SC1=NC(c3ccc(C(F)(F)F)cc3)C(C(=O)N[C@@H](Cc3c[nH]cn3)C(=O)O)=C(C(F)(F)F)N1)C2 (stereo partly drawn) [12h, (2-((2-(2-(Methylsulfonyl)-2,6-dihydropyrrolo[3,4-c]pyrazol-5(4H)-yl)acetyl)thio)-6-(trifluoromethyl)-4-(4-(trifluoromethyl)phenyl)-1,4-dihydropyrimidine-5-carbonyl)histidine] | 16.3 µM | –
CS(=O)(=O)n1cc2c(n1)CN(CC(=O)SC1=NC(c3ccc(C(F)(F)F)cc3)C(C(=O)N[C@@H](Cc3ccc(O)cc3)C(=O)O)=C(C(F)(F)F)N1)C2 (stereo partly drawn) [12i, (2-((2-(2-(Methylsulfonyl)-2,6-dihydropyrrolo[3,4-c]pyrazol-5(4H)-yl)acetyl)thio)-6-(trifluoromethyl)-4-(4-(trifluoromethyl)phenyl)-1,4-dihydropyrimidine-5-carbonyl)-L-tyrosine] | – | CC50 at 48 h [2]: 243 µM
CS(=O)(=O)n1cc2c(n1)CN(CC(=O)SC1=NC(c3ccc([N+](=O)[O-])cc3)C(C(=O)N[C@@H](CCC(=O)O)C(=O)O)=C(C(F)(F)F)N1)C2 (stereo partly drawn) [12j, (2-((2-(2-(Methylsulfonyl)-2,6-dihydropyrrolo[3,4-c]pyrazol-5(4H)-yl)acetyl)thio)-4-(4-nitrophenyl)-6-(trifluoromethyl)-1,4-dihydropyrimidine-5-carbonyl)-L-glutamic acid] | 0.063 µM | CC50 at 48 h [2]: 211 µM; inhibition against M^pro [1]: over 50%
CS(=O)(=O)n1cc2c(n1)CN(CC(=O)SC1=NC(c3ccc([N+](=O)[O-])cc3)C(C(=O)Nc3ccc(S(=O)(=O)O)cc3)=C(C(F)(F)F)N1)C2 (stereo not drawn) [12k, 4-(2-((2-(2-(Methylsulfonyl)-2,6-dihydropyrrolo[3,4-c]pyrazol-5(4H)-yl)acetyl)thio)-4-(4-nitrophenyl)-6-(trifluoromethyl)-1,4-dihydropyrimidine-5-carboxamido)benzene-sulfonic acid] | 0.146 µM | CC50 at 48 h [2]: 239 µM
COC(=O)c1ccc(C2N=C(SC(=O)CN3CCn4c(nnc4C(F)(F)F)C3)NC(C(F)(F)F)=C2C(=O)N[C@@H](Cc2c[nH]cn2)C(=O)O)cc1 (stereo partly drawn) [12l, (4-(4-(Methoxycarbonyl)phenyl)-6-(trifluoromethyl)-2-((2-(3-(trifluoromethyl)-5,6-dihydro-[1,2,4]triazolo[4,3-a]pyrazin-7(8H)-yl)acetyl)thio)-1,4-dihydropyrimidine-5-carbonyl)-L-histidine] | 0.054 µM | CC50 at 48 h [2]: 198 µM; inhibition against M^pro [1]: over 50%
CC(C)(C)NC(=O)N[C@H](C(=O)N1C[C@H]2[C@@H]([C@H]1C(=O)NC(CC1CCC1)C(=O)C(N)=O)C2(C)C)C(C)(C)C (stereo partly drawn) [boceprevir] | – | IC50 [3]: 4.13 µM
Cn1cnc(Cn2c(=O)[nH]/c(=N\c3cc4cn(C)nc4cc3Cl)n(Cc3cc(F)c(F)cc3F)c2=O)n1 [ensitrelvir] | – | EC50 [4]: 0.37 µM
CC(C)(C)[C@H](NC(=O)C(F)(F)F)C(=O)N1C[C@H]2[C@@H]([C@H]1C(=O)N[C@H](C#N)C[C@@H]1CCNC1=O)C2(C)C [nirmatrelvir] | – | EC50 ([4]; read-out: antiviral activity EC50): 0.074 µM
